Here are results for 13 compounds from ChEMBL document CHEMBL3871265, “The therapeutic journey of pyridazinone” (Eur J Med Chem, 2016).

The test system of experiment [1] is Rattus norvegicus. The experiment in a line: Antiinflammatory activity in rat paw edema model. It counts as functional.
Experiment [2] in a line: Antiinflammatory activity in human HL60 cells assessed as inhibition of LPS-induced IL-1beta production. The class given is functional, cell-based. The note with it: HL-60.
Experiment [3] is described as follows: Antiplatelet activity in human washed platelets assessed as reduction in thrombin-induced platelet aggregation preincubated for 5 mins followed by thrombin induction measured after 5 mins by dual channel aggregometric analysis. The class given is functional, cell-based.
The nature of experiment [4]: Cytotoxicity against human IMR32 cells assessed as reduction in cell viability after 72 hrs by MTT assay. It counts as functional, cell-based. The note with it: IMR-32, 72 h.
The target of experiment [5] is Adrenergic receptor alpha-1 (Rattus norvegicus) (UniProt P15823+P23944+P43140). The experiment in a line: Potency index, ratio of compound affinity to prazosin affinity for alpha1-adrenergic receptor in rat cerebral cortex membranes. Conditions: Membrane. The class given is cell membranes.
The target of experiment [6] is T1, Adrenergic receptor alpha-1 (Rattus norvegicus, UniProt P15823+P23944+P43140).
T1 sequence (P15823 whole entry): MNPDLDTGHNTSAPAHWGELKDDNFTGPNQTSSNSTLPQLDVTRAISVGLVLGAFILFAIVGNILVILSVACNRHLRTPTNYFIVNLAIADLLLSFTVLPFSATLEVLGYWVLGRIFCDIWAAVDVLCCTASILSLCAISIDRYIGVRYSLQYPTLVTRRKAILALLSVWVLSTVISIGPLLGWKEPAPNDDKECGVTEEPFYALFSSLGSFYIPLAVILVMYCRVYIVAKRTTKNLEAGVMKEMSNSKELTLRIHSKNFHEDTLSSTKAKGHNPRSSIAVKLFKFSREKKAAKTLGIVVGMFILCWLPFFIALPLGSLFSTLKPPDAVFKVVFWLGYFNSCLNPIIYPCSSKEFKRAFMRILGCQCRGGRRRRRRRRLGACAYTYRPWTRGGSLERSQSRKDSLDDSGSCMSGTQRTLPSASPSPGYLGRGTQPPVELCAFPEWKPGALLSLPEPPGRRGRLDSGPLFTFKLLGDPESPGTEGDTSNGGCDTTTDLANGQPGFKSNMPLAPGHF
T1 sequence (P23944 whole entry): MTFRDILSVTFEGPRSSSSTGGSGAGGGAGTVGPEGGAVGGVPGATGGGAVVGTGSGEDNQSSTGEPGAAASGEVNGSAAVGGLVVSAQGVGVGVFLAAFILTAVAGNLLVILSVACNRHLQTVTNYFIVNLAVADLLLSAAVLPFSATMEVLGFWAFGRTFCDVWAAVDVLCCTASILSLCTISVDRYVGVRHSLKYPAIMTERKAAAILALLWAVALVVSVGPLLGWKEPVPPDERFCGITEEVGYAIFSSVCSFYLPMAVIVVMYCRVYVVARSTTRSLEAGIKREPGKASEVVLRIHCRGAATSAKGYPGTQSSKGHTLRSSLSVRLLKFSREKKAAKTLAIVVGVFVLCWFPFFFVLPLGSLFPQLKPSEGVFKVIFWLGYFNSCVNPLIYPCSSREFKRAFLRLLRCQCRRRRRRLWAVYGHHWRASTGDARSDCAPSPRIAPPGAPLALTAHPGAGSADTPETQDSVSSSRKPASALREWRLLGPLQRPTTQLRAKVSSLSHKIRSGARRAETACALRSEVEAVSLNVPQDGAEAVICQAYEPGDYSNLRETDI
T1 sequence (P43140 whole entry): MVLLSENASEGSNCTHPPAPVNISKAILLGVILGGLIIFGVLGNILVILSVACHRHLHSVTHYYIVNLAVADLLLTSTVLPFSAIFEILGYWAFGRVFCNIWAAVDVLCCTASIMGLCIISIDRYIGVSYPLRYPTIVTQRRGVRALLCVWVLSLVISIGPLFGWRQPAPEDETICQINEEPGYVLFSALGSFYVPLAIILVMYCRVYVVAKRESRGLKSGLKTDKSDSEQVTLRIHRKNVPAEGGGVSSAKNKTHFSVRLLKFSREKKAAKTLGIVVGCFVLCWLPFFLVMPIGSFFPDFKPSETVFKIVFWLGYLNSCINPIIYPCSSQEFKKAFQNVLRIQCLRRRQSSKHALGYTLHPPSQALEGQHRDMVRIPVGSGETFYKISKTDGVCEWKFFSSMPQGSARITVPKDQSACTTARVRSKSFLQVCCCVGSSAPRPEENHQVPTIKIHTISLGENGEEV
The experiment in a line: Displacement of [3H]prazosin from alpha1-adrenergic receptor in rat cerebral cortex membranes. The class given is cell membranes, Membrane.

Experiment [7] can be described thus: Agonist activity at PGI2 in human platelet-rich plasma assessed as inhibition of ADP-induced platelet aggregation.
The species named for experiment [8] is Rattus norvegicus. The experiment is described as follows: Antiinflammatory activity in rat pyresis model. The class given is functional.
Experiment [9] is described as follows: Cytotoxicity against human Bel7402 cells assessed as cell growth inhibition after 72 hrs in presence of 5% CO2 by MTS assay. The class given is functional. Conditions: Bel-7402, 72 h. In general terms: Formazan colour is commonly taken as a measure of viable cells.
The nature of experiment [10]: Cytotoxicity against human SMMC7721 cells assessed as cell growth inhibition after 72 hrs in presence of 5% CO2 by MTS assay. It counts as functional. The note with it: SMMC-7721, 72 h.
The nature of experiment [11]: Cytotoxicity against human QGY7703 cells assessed as cell growth inhibition after 72 hrs in presence of 5% CO2 by MTS assay. It counts as functional. Conditions: QGY-7703, 72 h.
Experiment [12] in a line: Antiplatelet activity in human platelets assessed as reduction in thrombin-induced platelet aggregation by turbidimetric method. The class given is functional, cell-based.

Compound `CC(C)Oc1c(-c2ccc(S(C)(=O)=O)cc2)cnn(Cc2ccccc2)c1=O` showed a 50% effective dose (ED50) in experiment [1] of 0.3 mg/kg.

With `COc1ccc(-c2cc(=O)n(CC/C=C/c3ccccc3)nc2-c2ccc(OC)cc2)cc1`, the IC50 in [2] was 100 nM.

Regarding `COC(=O)/C(=C/c1cc(O)nnc1-c1ccccc1)C(C)=O`, the IC50 in [3] is 25000 nM.

As for `COC(=O)C(=Cc1cc(=O)[nH]nc1-c1ccccc1)C(=O)OC`, the concentration for half-maximal inhibition (IC50) in experiment [3] was 45000 nM.

For `Cc1n[nH]c(=O)c2c1c1cc(F)ccc1n2Cc1cn(C2CCCCC2)nn1`, the IC50 in experiment [4] amounted to 40 nM.

For `O=C(/C=C/c1cc(=O)[nH]nc1-c1ccccc1)c1ccccc1`, the IC50 in [3] is 25000 nM.

In the case of `O=C(c1ccco1)N1CCN(c2cnn(CCCCCCCN3CCN(c4ccccc4Oc4ccccc4)CC3)c(=O)c2Cl)CC1`, the Ratio in experiment [5] was found to be 5. The Ki in experiment [6] is recorded as 0.052 nM.

Regarding `O=C(O)COc1cccc2c1CC[C@H](Cn1nc(C(c3ccccc3)c3ccccc3)ccc1=O)C2`, the IC50 in experiment [7] stood at 81 nM.

`C[C@H]1C[C@@H]1Cn1ncc(-c2ccc(S(C)(=O)=O)cc2)c(-c2ccc(F)cc2)c1=O` had an ED50 in [8] of 1.1 mg/kg.

Turning to `O=c1ccc(-c2ccc(N3CCOCC3)c(C(F)(F)F)c2)n[nH]1`, the GI50 in experiment [9] was 469 nM; in experiment [10], 28.7 nM; in [11], 30.2 nM.

As to `O=C(/C=C/c1cc(=O)[nH]nc1-c1ccccc1)c1ccc(Cl)cc1Cl`, the IC50 in experiment [12] worked out at 3440 nM.

For the compound `CCOC(=O)C(=Cc1cc(=O)[nH]nc1-c1ccccc1)C(=O)OCC`, in experiment [3], the IC50 stood at 20000 nM.

With `CC(C)(C)c1ccc(CSc2c(-c3ccccc3)nn(C(C)(C)C)c(=O)c2F)cc1`, the IC50 in experiment [3] stood at 15000 nM.

By ED50 is commonly meant the midpoint of the dose-response relation. The IC50 is the midpoint of a concentration-inhibition curve. The term Ki denotes the equilibrium dissociation constant of an inhibitor or competing ligand from its target. Lower therefore signals higher affinity. As a reminder, the GI50 is the concentration at which growth is held to half of that of the control.
